Assay results as given in patent US20150105252A1, “SUBSTITUTED PYRAZOLES AS HERBICIDES” (E I DU PONT DE NEMOURS AND COMPANY, priority 2013, published 2015).

How the values were obtained:
Test in all cases: Test C postemergence
morningglory = format: in vivo, Ipomoea coccinea
Method in brief: (§1)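 Postemergence values come from plants sprayed at the 1- to 4-leaf stage (2–18 cm) in peat moss–vermiculite medium; preemergence values from seeds treated in a loam–sand blend. Both evaluated visually against controls after 13–15 greenhouse days, scale 0–100.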

pigweed = format: in vivo, Amaranthus retroflexus
Method in brief: as §1

oilseed rape = format: in vivo, Brassica napus
Method in brief: as §1

johnsongrass = format: in vivo, Sorghum halepense
Method in brief: as §1

ryegrass, Italian = format: in vivo, Lolium multiflorum
Method in brief: as §1

nutsedge, yellow = format: in vivo, Cyperus esculentus
Method in brief: as §1

foxtail, giant = format: in vivo, Setaria faberii
Method in brief: as §1

oat, wild = format: in vivo, Avena fatua
Method in brief: as §1

waterhemp = format: in vivo, Amaranthus rudis
Method in brief: as §1

crabgrass, large = format: in vivo, Digitaria sanguinalis
Method in brief: as §1

galium = format: in vivo, Galium aparine
Method in brief: as §1

kochia = format: in vivo, Kochia scoparia
Method in brief: as §1

velvetleaf = format: in vivo, Abutilon theophrasti
Method in brief: as §1

corn = format: in vivo, Zea mays
Method in brief: as §1

soybean = format: in vivo, Glycine max
Method in brief: as §1

blackgrass = format: in vivo, Alopecurus myosuroides
Method in brief: as §1

chickweed = format: in vivo, Stellaria media
Method in brief: as §1

ragweed = format: in vivo, Ambrosia elation
Method in brief: as §1

[1] = Postemergence, 31 g ai/ha, visually evaluated after 13 to 15 days
[2] = postemergence, 62 g ai/ha, scale 0 to 100
[3] = postemergence, 250 g ai/ha, scale 0 to 100 (0 no effect, 100 complete control)
[4] = postemergence, 125 g ai/ha, scale 0 to 100, 0 no effect, 100 complete control

SMILES: CCNC(=O)c1cc(CC)n(Cc2ccnc(OC(F)F)c2)n1 [Compound 130]
- Plant response rating (scale of 0 to 100 where 0 is no effect and 100 is complete control), Morningglory (morningglory; [1]): 35
- Morningglory plant response rating (morningglory; [2]): 75
- Plant response rating, Morningglory (morningglory; [3]): 98
- Plant response rating, Morningglory (morningglory; [4]): 85
- Plant response rating (scale of 0 to 100 where 0 is no effect and 100 is complete control), Pigweed (pigweed; [1]): 30
- Pigweed plant response rating (pigweed; [2]): 65
- Plant response rating, Pigweed (pigweed; [3]): 85
- Plant response rating, Pigweed (pigweed; [4]): 50
- Plant response rating (scale of 0 to 100 where 0 is no effect and 100 is complete control), Oilseed Rape (oilseed rape; [1]): 35
- Oilseed Rape plant response rating (oilseed rape; [2]): 40
- Plant response rating, Oilseed Rape (oilseed rape; [3]): 60
- Plant response rating, Oilseed Rape (oilseed rape; [4]): 55
- Plant response rating (scale of 0 to 100 where 0 is no effect and 100 is complete control), Johnsongrass (johnsongrass; [1]): 0
- Johnsongrass plant response rating (johnsongrass; [2]): 5
- Plant response rating, Johnsongrass (johnsongrass; [3]): 10
- Plant response rating, Johnsongrass (johnsongrass; [4]): 5
- Plant response rating (scale of 0 to 100 where 0 is no effect and 100 is complete control), Ryegrass, Italian (ryegrass, Italian; [1]): 5
- Ryegrass, Italian plant response rating (ryegrass, Italian; [2]): 5
- Plant response rating, Ryegrass, Italian (ryegrass, Italian; [3]): 15
- Plant response rating, Ryegrass, Italian (ryegrass, Italian; [4]): 10
- Plant response rating (scale of 0 to 100 where 0 is no effect and 100 is complete control), Nutsedge, Yellow (nutsedge, yellow; [1]): 0
- Nutsedge, Yellow plant response rating (nutsedge, yellow; [2]): 5
- Plant response rating, Nutsedge, Yellow (nutsedge, yellow; [3]): 10
- Plant response rating, Nutsedge, Yellow (nutsedge, yellow; [4]): 5
- Plant response rating (scale of 0 to 100 where 0 is no effect and 100 is complete control), Foxtail, Giant (foxtail, giant; [1]): 40
- Foxtail, Giant plant response rating (foxtail, giant; [2]): 15
- Plant response rating, Foxtail, Giant (foxtail, giant; [3]): 55
- Plant response rating, Foxtail, Giant (foxtail, giant; [4]): 20
- Plant response rating (scale of 0 to 100 where 0 is no effect and 100 is complete control), Oat, Wild (oat, wild; [1]): 5
- Oat, Wild plant response rating (oat, wild; [2]): 10
- Plant response rating, Oat, Wild (oat, wild; [3]): 15
- Plant response rating, Oat, Wild (oat, wild; [4]): 15
- Plant response rating (scale of 0 to 100 where 0 is no effect and 100 is complete control), Waterhemp (waterhemp; [1]): 30
- Waterhemp plant response rating (waterhemp; [2]): 55
- Plant response rating, Waterhemp (waterhemp; [3]): 80
- Plant response rating, Waterhemp (waterhemp; [4]): 70
- Plant response rating (scale of 0 to 100 where 0 is no effect and 100 is complete control), Crabgrass, Large (crabgrass, large; [1]): 5
- Crabgrass, Large plant response rating (crabgrass, large; [2]): 5
- Plant response rating, Crabgrass, Large (crabgrass, large; [3]): 25
- Plant response rating, Crabgrass, Large (crabgrass, large; [4]): 10
- Plant response rating (scale of 0 to 100 where 0 is no effect and 100 is complete control), Galium (galium; [1]): 60
- Galium plant response rating (galium; [2]): 65
- Plant response rating, Galium (galium; [3]): 75
- Plant response rating, Galium (galium; [4]): 65
- Plant response rating (scale of 0 to 100 where 0 is no effect and 100 is complete control), Kochia (kochia; [1]): 65
- Kochia plant response rating (kochia; [2]): 75
- Plant response rating, Kochia (kochia; [3]): 90
- Plant response rating, Kochia (kochia; [4]): 90
- Plant response rating (scale of 0 to 100 where 0 is no effect and 100 is complete control), Velvetleaf (velvetleaf; [1]): 5
- Velvetleaf plant response rating (velvetleaf; [2]): 10
- Plant response rating, Velvetleaf (velvetleaf; [3]): 60
- Plant response rating, Velvetleaf (velvetleaf; [4]): 50
- Plant response rating (scale of 0 to 100 where 0 is no effect and 100 is complete control), Corn (corn; [1]): 5
- Corn plant response rating (corn; [2]): 5
- Plant response rating, Corn (corn; [3]): 25
- Plant response rating, Corn (corn; [4]): 5
- Plant response rating (scale of 0 to 100 where 0 is no effect and 100 is complete control), Soybean (soybean; [1]): 70
- Soybean plant response rating (soybean; [2]): 80
- Plant response rating, Soybean (soybean; [3]): 98
- Plant response rating, Soybean (soybean; [4]): 65
- Plant response rating (scale of 0 to 100 where 0 is no effect and 100 is complete control), Blackgrass (blackgrass; [1]): 5
- Blackgrass plant response rating (blackgrass; [2]): 5
- Plant response rating, Blackgrass (blackgrass; [3]): 10
- Plant response rating, Blackgrass (blackgrass; [4]): 10
- Plant response rating (scale of 0 to 100 where 0 is no effect and 100 is complete control), Chickweed (chickweed; [1]): 65
- Chickweed plant response rating (chickweed; [2]): 70
- Plant response rating, Chickweed (chickweed; [3]): 75
- Plant response rating, Chickweed (chickweed; [4]): 75
- Plant response rating (scale of 0 to 100 where 0 is no effect and 100 is complete control), Ragweed (ragweed; [1]): 30
- Ragweed plant response rating (ragweed; [2]): 35
- Plant response rating, Ragweed (ragweed; [3]): 85
- Plant response rating, Ragweed (ragweed; [4]): 45
